Measurements published in patent US10001483B2, “Methods for the treatment of Kaposi's sarcoma or KSHV-induced lymphoma using immunomodulatory compounds, and uses of biomarkers” (Celgene Corporation, priority 2015, dated 2018).

Key:
[1] = system: KSHV-infected PEL lines (BC-3, BCBL-1, JSC-1, BC-1); assay: Cell viability (Trypan Blue or CellTiter-Glo) in KSHV-infected PEL cell lines; format: cell-based; settings: among thalidomide, lenalidomide, pomalidomide, FIGS. 2A-2D
Protocol: In addition, the effect of the immunomodulatory drugs on KSHV down-regulation of MHC-1 during lytic activation was investigated by FACS analysis after pretreating the cells with Immunomodulatory drugs prior to lytic activation with butyrate.
Cell Viability: Cells were plated in triplicate at a density of 30,000-60,000 cells per well in 96-well plates. Cell lines were kept separate on different plates. Cell viability after indicated treatments were assayed by Trypan Blue or by adding the CellTiter-Glo reagent to measure the total ATP in cells cultured with serum-supplemented medium. For the latter, the corresponding luminescence values, correlated to the number of cells, were measured using a luminometer. The values for percentage of living cells were normalized to the control.
Cell Culture: The PEL lines JSC-1 (John Hopkins University, Baltimore, Md.), dually infected with Epstein-Barr virus (EBV) and HHV-8, and BC-3 (ATCC, Rockville, Md.) and BCBL-1(National Institute of Health AIDS Research and Reagent Program, Rockville, Md.), harboring KSHV only, and CA-46, an uninfected cancerous B-cell line, were grown in RPMI 1640 medium (Invitrogen, Carlsbad, Calif.) supplemented with 15% fetal-bovine serum (FBS) (Thermo Scientific, Rockford, Ill.) and Pen/Strep glutamine at 37° C. with 5% CO2.

KSHV K3 and K5 = assay: K3 and K5 protein expression in BCBL-1 cells after lytic activation, Western blot; format: cell-based; settings: following lytic activation
Protocol: Western Blotting: At the end of an incubation period, cells were lysed and nuclear/cytoplasmic extracts were prepared using the NE-PER nuclear extraction kit (Pierce). Samples were subjected to SDS-PAGE (4 to 12% NuPAGE Tris-Bis) (Invitrogen) and transferred to nitrocellulose. The membrane was blocked with 5% w/v nonfat dry milk in 1×TBST (10 mM Tris-Hcl, […], 150 mM NaCl, and 0.05% Tween 20) overnight at 4° C. Blots were incubated with indicated antibodies such as anti-IRF-7 (Santa Cruz), anti-IRF-4 (Cell Signaling), anti-p21 (Cell Signaling), anti-NF-κB p65 (Cell Signaling), anti-NF-κB phospho-p65 (Cell Signaling), IFN-γRa (Cell Signaling), or anti-CRBN (Sigma-Aldrich), and subjected to the appropriate secondary antibody conjugated to alkaline phosphatase (Promega). Bands were visualized with Western Blue stabilized substrate (Promega). Membranes were scanned and images were processed as described.
Flow Cytometry Analysis and Antibodies: For flow cytometry analysis of MHC-I expression, cells were plated at 400,000 cells/mL and pretreated with immunomodulatory agents as indicated. After twenty-four hours, cells were treated with butyrate at indicated amounts to induce lytic activation and down-regulation of MHC-I. After another twenty-four hours, cells were analyzed on FACS and extracts were prepared as indicated. […]

In the case of `Nc1cccc2c1C(=O)N(C1CCC(=O)NC1=O)C2=O` (stereo not drawn) [pomalidomide, 4-amino-2-(2,6-dioxopiperidin-3-yl)isoindoline-1,3-dione], the “cell viability / PEL proliferation” value [1] is reported as “most effective one at killing KSHV infected cells”, the “protein expression level of KSHV K3 or K5” value (KSHV K3 and K5; FIG. 8) is reported as “appears not to prevent K3 and K5 expression” and the “protein expression level of KSHV K3 or K5” value (KSHV K3 and K5; FIG. 8, listed as Pomalidomide) is reported as “did not significantly change the protein expression level”.
